# The source made the active and inactive calls. The rule behind the calls is not given here.
# Columns and labels:
# [1] = biological target: Tubulin beta chain (Bos taurus) (UniProt Q6B856); experiment: Compound was tested for its effect on microtubule stabilization isolated from bovine brain; NS: not significant
# [2] = biological target: Tubulin beta chain (Bos taurus) (UniProt Q6B856); experiment: Compound was tested for its effect on microtubule stabilization isolated from bovine brain; not significant
# [3] = biological target: Tubulin beta chain (Bos taurus) (UniProt Q6B856); experiment: Effect on microtubule stabilization isolated from bovine brain
# COLO 205 = experiment: Compound was tested for growth inhibitory activity against COLO 205 cell line; assay type: functional; details: Homo sapiens
# NCI/ADR-RES = experiment: Compound was tested for growth inhibitory activity against MCF-7/ADR cell line; assay type: functional; details: Homo sapiens
# HCT-15 = experiment: Compound was tested for growth inhibitory activity against HCT-15 cell line; assay type: functional; details: Homo sapiens
# BT-549 = experiment: Compound was tested for growth inhibitory activity against BT-549 cell line; assay type: functional; details: Homo sapiens
# KM12 = experiment: Compound was tested for growth inhibitory activity against KM12 cell line; assay type: functional; details: Homo sapiens
# SF-295 = experiment: Compound was tested for growth inhibitory activity against SF-295 cell line; assay type: functional; details: Homo sapiens
# HOP-62 = experiment: Compound was tested for growth inhibitory activity against HOP-62 cell line; assay type: functional; details: Homo sapiens
# OVCAR-8 = experiment: Compound was tested for growth inhibitory activity against OVCAR-8 cell line; assay type: functional; details: Homo sapiens
# HL-60 = experiment: Compound was tested for growth inhibitory activity against HL-60 cell line; assay type: functional; details: Homo sapiens
# SF-539 = experiment: Compound was tested for growth inhibitory activity against SF-539 cell line; assay type: functional; details: Homo sapiens
# M14 = experiment: Compound was tested for growth inhibitory activity against M14 cell line; assay type: functional; details: Homo sapiens
# SK-MEL-2 [4] = experiment: Compound was tested for growth inhibitory activity against SK-MEL-2 cell line; assay type: functional; details: Homo sapiens
# 786-0 = experiment: Compound was tested for growth inhibitory activity against 786-0 cell line; assay type: functional; details: Homo sapiens
# OVCAR-3 = experiment: Compound was tested for growth inhibitory activity against OVCAR-3 cell line; assay type: functional; details: Homo sapiens
# MCF7 = experiment: Compound was tested for growth inhibitory activity against MCF-7 cell line; assay type: functional; details: Homo sapiens
# SK-OV-3 = experiment: Compound was tested for growth inhibitory activity against SK-OV-3 cell line; assay type: functional; details: Homo sapiens
# HCC 2998 = experiment: Compound was tested for growth inhibitory activity against HCC2998 cell line; assay type: functional; details: Homo sapiens
# RXF 393 = experiment: Compound was tested for growth inhibitory activity against RXF 393 cell line; assay type: functional; details: Homo sapiens
# MDA-MB-435 = experiment: Compound was tested for growth inhibitory activity against MDA-MB-435 cell line; assay type: functional; details: Homo sapiens
# MOLT-4 = experiment: Compound was tested for growth inhibitory activity against MOLT-4 cell line; assay type: functional; details: Homo sapiens
# NCI-H226 = experiment: Compound was tested for growth inhibitory activity against NCI-H226 cell line; assay type: functional; details: Homo sapiens
# SR = experiment: Compound was tested for growth inhibitory activity against SR cell line; assay type: functional; details: Homo sapiens
# SF-268 = experiment: Compound was tested for growth inhibitory activity against SF-268 cell line; assay type: functional; details: Homo sapiens
# Hs-578T = experiment: Compound was tested for growth inhibitory activity against HS 578T cell line; assay type: functional; details: Homo sapiens
# PC-3 = experiment: Compound was tested for growth inhibitory activity against PC-3 cell line; assay type: functional; details: Homo sapiens
# A498 = experiment: Compound was tested for growth inhibitory activity against A498 cell line; assay type: functional; details: Homo sapiens
# UACC-62 = experiment: Compound was tested for growth inhibitory activity against UACC-62 cell line; assay type: functional; details: Homo sapiens
# UO-31 = experiment: Compound was tested for growth inhibitory activity against UO-31 cell line; assay type: functional; details: Homo sapiens
# U-251 = experiment: Compound was tested for growth inhibitory activity against U251 cell line; assay type: functional; details: Homo sapiens
# HT-29 = experiment: Compound was tested for growth inhibitory activity against HT-29 cell line; assay type: functional; details: Homo sapiens
# NCI-H522 = experiment: Compound was tested for growth inhibitory activity against NCI-H522 cell line; assay type: functional; details: Homo sapiens
# SNB-19 = experiment: Compound was tested for growth inhibitory activity against SNB-19 cell line; assay type: functional; details: Homo sapiens
# SK-MEL-5 = experiment: Compound was tested for growth inhibitory activity against SK-MEL-5 cell line; assay type: functional; details: Homo sapiens
# SK-MEL-2 [5] = experiment: Compound was tested for growth inhibitory activity against SK-MEL-2; assay type: functional; details: Homo sapiens
# [6] = biological target: Tubulin beta chain (Bos taurus) (UniProt Q6B856); experiment: Compound was tested for its effect on microtubule stabilization isolated from bovine brain; compound was inactive
# Sequence of Tubulin beta chain (Bos taurus) (Q6B856 whole entry): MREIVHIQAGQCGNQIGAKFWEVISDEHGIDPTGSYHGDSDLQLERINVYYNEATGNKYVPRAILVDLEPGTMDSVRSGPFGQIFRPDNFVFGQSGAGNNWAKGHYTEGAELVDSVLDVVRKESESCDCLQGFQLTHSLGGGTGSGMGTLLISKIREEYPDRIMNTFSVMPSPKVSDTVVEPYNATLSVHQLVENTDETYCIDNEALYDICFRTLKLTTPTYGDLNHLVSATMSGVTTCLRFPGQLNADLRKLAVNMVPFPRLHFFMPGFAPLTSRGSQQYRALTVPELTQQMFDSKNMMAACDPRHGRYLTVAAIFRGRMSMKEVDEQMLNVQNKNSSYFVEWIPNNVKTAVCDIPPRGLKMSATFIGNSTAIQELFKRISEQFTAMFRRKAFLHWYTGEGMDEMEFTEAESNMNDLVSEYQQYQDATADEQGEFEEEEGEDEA
smiles,measurement,setting,value
CCNC(=O)N[C@@H](c1ccccc1)[C@@H](O)C(=O)OC1CC2C(C)(C)C1(C)[C@@]13C[C@H](C)c4ccccc4[C@@]21O3 (stereo not given in full),Relative stability,[1],inactive
CCOC(=O)N[C@@H](c1ccc(OCc2ccccc2)cc1)[C@@H](O)C(=O)OC1CC2C(C)(C)C1(C)[C@@]13C[C@H](C)c4ccccc4[C@@]21O3 (stereo not given in full),Relative stability,[1],inactive
CCOC(=O)N[C@@H](c1ccsc1)[C@@H](O)C(=O)OC1CC2C(C)(C)C1(C)[C@@]13C[C@](O)(COC(C)=O)c4ccccc4[C@@]21O3 (stereo not given in full),Relative stability,[1],inactive
C=C1C[C@@]23O[C@]2(c2ccccc21)C1CC(OC(=O)[C@H](O)[C@@H](NC(=O)CC(C)(C)C)c2ccccc2)C3(C)C1(C)C (stereo not given in full),Relative stability,[2],inactive
CCCCOC(=O)N[C@@H](c1ccccc1)[C@@H](O)C(=O)OC1CC2C(C)(C)C1(C)[C@@]13C[C@H](C)c4ccccc4[C@@]21O3 (stereo not given in full),Relative stability,[1],inactive
CCOC(=O)N[C@@H](c1ccccc1)[C@@H](O)C(=O)OC1CC2C(C)(C)C1(C)[C@@]13C[C@@H](C)c4ccccc4[C@@]21O3 (stereo not given in full),Relative stability,[1],inactive
C=C1C[C@@]23O[C@]2(c2ccccc21)C1CC(OC(=O)[C@H](O)[C@@H](NC(=O)OCC)c2ccncc2)C3(C)C1(C)C (stereo not given in full),Relative stability,[3],423%
C=C1C[C@@]23O[C@]2(c2ccccc21)C1CC(OC(=O)[C@H](O)[C@@H](NC(=O)CC)c2ccccc2)C3(C)C1(C)C (stereo not given in full),Relative stability,[3],108%
C=C1C[C@@]23O[C@]2(c2ccccc21)C1CC(OC(=O)[C@H](O)[C@@H](NC(=O)NCC)c2ccccc2)C3(C)C1(C)C (stereo not given in full),Relative stability,[1],inactive
CC(=O)O[C@H]1C(=O)[C@@]2(C)[C@H]([C@H](OC(=O)c3ccccc3)[C@]3(O)C[C@H](OC(=O)[C@H](O)[C@@H](NC(=O)c4ccccc4)c4ccccc4)C(C)=C1C3(C)C)[C@]1(OC(C)=O)CO[C@@H]1C[C@@H]2O [PACLITAXEL],GI50,COLO 205,3.16 nM
same,GI50,NCI/ADR-RES,3160 nM
same,GI50,HCT-15,200 nM
same,GI50,BT-549,6.31 nM
same,GI50,KM12,3.16 nM
same,GI50,SF-295,15.8 nM
same,GI50,HOP-62,15.8 nM
same,GI50,OVCAR-8,5.01 nM
same,GI50,HL-60,5.01 nM
same,GI50,SF-539,3.16 nM
same,GI50,M14,10 nM
same,GI50,SK-MEL-2 [4],5.01 nM
same,GI50,786-0,19.9 nM
same,GI50,OVCAR-3,3.16 nM
same,GI50,MCF7,3.16 nM
same,GI50,SK-OV-3,10 nM
same,GI50,HCC 2998,3.98 nM
same,GI50,RXF 393,7.94 nM
same,GI50,MDA-MB-435,2.51 nM
same,GI50,MOLT-4,3.98 nM
same,GI50,NCI-H226,31.6 nM
same,GI50,SR,2.51 nM
same,GI50,SF-268,7.94 nM
same,GI50,Hs-578T,3.16 nM
same,GI50,PC-3,3.98 nM
same,GI50,A498,79.4 nM
same,GI50,UACC-62,3.98 nM
same,GI50,UO-31,1000 nM
same,GI50,U-251,3.98 nM
same,GI50,HT-29,2.51 nM
same,GI50,NCI-H522,3.16 nM
same,GI50,SNB-19,10 nM
same,GI50,SK-MEL-5,3.98 nM
CCOC(=O)N[C@@H](c1ccc(OC)cc1)[C@@H](O)C(=O)OC1CC2C(C)(C)C1(C)[C@@]13C[C@H](C)c4ccccc4[C@@]21O3 (stereo not given in full),Relative stability,[3],125%
C=C1C[C@@]23O[C@]2(c2ccccc21)C1CC(OC(=O)[C@H](O)[C@@H](NC(=O)CC(C)C)c2ccccc2)C3(C)C1(C)C (stereo not given in full),Relative stability,[3],101%
CCOC(=O)N[C@@H](c1ccc(F)cc1)[C@@H](O)C(=O)OC1CC2C(C)(C)C1(C)[C@@]13C[C@H](C)c4ccccc4[C@@]21O3 (stereo not given in full),Relative stability,[3],139%
C=C1C[C@@]23O[C@]2(c2ccccc21)C1CC(OC(=O)[C@H](O)[C@@H](NC(=O)OCC)c2ccc(OCc4ccccc4)cc2)C3(C)C1(C)C (stereo not given in full),Relative stability,[1],inactive
C[C@H]1C[C@@]23O[C@]2(c2ccccc21)C1CC(OC(=O)[C@H](O)[C@@H](NC(=O)OC(C)(C)C)c2ccccc2)C3(C)C1(C)C (stereo not given in full),Relative stability,[3],148%
C=C1C[C@@]23O[C@]2(c2ccccc21)C1CC(OC(=O)[C@H](O)[C@@H](NC(=O)OCC)c2ccccc2)C3(C)C1(C)C (stereo not given in full),Relative stability,[3],228%
C=C1C[C@@]23O[C@]2(c2ccccc21)C1CC(OC(=O)[C@H](O)[C@@H](NC(=O)OCC)c2ccc(C)cc2)C3(C)C1(C)C (stereo not given in full),Relative stability,[3],142%
C=C1C[C@@]23O[C@]2(c2ccccc21)C1CC(OC(=O)[C@H](O)[C@@H](NC(=O)OCC)c2cccc(F)c2)C3(C)C1(C)C (stereo not given in full),Relative stability,[3],106%
C=C1C[C@@]23O[C@]2(c2ccccc21)C1CC(OC(=O)[C@H](O)[C@@H](NC(=O)OCC)c2ccc(Cl)cc2)C3(C)C1(C)C (stereo not given in full),Relative stability,[3],163%
C=C1C[C@@]23O[C@]2(c2ccccc21)C1CC(OC(=O)[C@H](O)[C@@H](NC(=O)NCCCC)c2ccccc2)C3(C)C1(C)C (stereo not given in full),Relative stability,[3],68%
CCOC(=O)N[C@@H](c1cccnc1)[C@@H](O)C(=O)OC1CC2C(C)(C)C1(C)[C@@]13C[C@H](C)c4ccccc4[C@@]21O3 (stereo not given in full),Relative stability,[3],119%
COC(=O)N[C@@H](c1ccncc1)[C@@H](O)C(=O)OC1CC2C(C)(C)C1(C)[C@@]13CC(C)c4ccccc4[C@@]21O3 (stereo not given in full),GI50,COLO 205,1860 nM
same,GI50,NCI/ADR-RES,1910 nM
same,GI50,HCT-15,977 nM
same,GI50,BT-549,22900 nM
same,GI50,KM12,933 nM
same,GI50,SF-295,2090 nM
same,GI50,HOP-62,6170 nM
same,GI50,OVCAR-8,2450 nM
same,GI50,HL-60,871 nM
same,GI50,SF-539,4680 nM
same,GI50,M14,1740 nM
same,GI50,786-0,2750 nM
same,GI50,OVCAR-3,1860 nM
same,GI50,MCF7,2820 nM
same,GI50,SK-OV-3,1910 nM
same,GI50,HCC 2998,525 nM
same,GI50,RXF 393,4570 nM
same,GI50,MDA-MB-435,589 nM
same,GI50,MOLT-4,4680 nM
same,GI50,NCI-H226,977 nM
same,GI50,SR,1450 nM
same,GI50,SF-268,3800 nM
same,GI50,SK-MEL-2 [5],2570 nM
same,GI50,Hs-578T,1480 nM
same,GI50,PC-3,3020 nM
same,GI50,A498,12300 nM
same,GI50,UACC-62,2630 nM
same,GI50,UO-31,562 nM
same,GI50,U-251,3980 nM
same,GI50,HT-29,447 nM
same,Relative stability,[3],-5%
same,GI50,NCI-H522,813 nM
same,GI50,SNB-19,2190 nM
same,GI50,SK-MEL-5,2340 nM
C=C1C[C@@]23O[C@]2(c2ccccc21)C1CC(OC(=O)[C@H](O)[C@@H](NC(=O)NC(C)(C)C)c2ccccc2)C3(C)C1(C)C (stereo not given in full),Relative stability,[3],92%
C[C@@H]1C[C@@]23O[C@]2(c2ccccc21)C1CC(OC(=O)[C@H](O)[C@@H](NC(=O)OC(C)(C)C)c2ccccc2)C3(C)C1(C)C (stereo not given in full),Relative stability,[6],inactive
C=C1C[C@@]23O[C@]2(c2ccccc21)C1CC(OC(=O)[C@H](O)[C@@H](NC(=O)OCC)c2cccnc2)C3(C)C1(C)C (stereo not given in full),Relative stability,[3],65%

# — ChEMBL document CHEMBL1131541, “New synthetic inhibitors of microtubule depolymerization” (1998)
